According to ChEMBL document CHEMBL1123687, “A new thienylpyrazoloquinoline: a potent and orally active inverse agonist to benzodiazepine receptors” (J Med Chem, 1987):

Experiments:
Mus musculus [1] = test: Ability to inhibit pentylenetetrazole (PTZ) induced convulsions in mice after peroral administration at 75 mg/Kg; […]; assay type: functional; conditions: po
Mus musculus [2] = test: Ability to inhibit pentylenetetrazole (PTZ) induced convulsions in mice after peroral administration at 90 mg/Kg; assay type: functional; conditions: po
[3] = target: GABA-A receptor; anion channel; test: Displacement of [3H]-diazepam from GABA-A benzodiazepine receptor of rat cerebral cortex; assay type: tissue-based
Mus musculus [4] = test: Ability to inhibit pentylenetetrazole (PTZ) induced convulsions in mice after intravenous administration at 75 mg/Kg; Range is between (0.34-0.73); assay type: functional
Mus musculus [5] = test: Ability to facilitate pentylenetetrazole (PTZ) induced convulsions in mice after intravenously administration at 90 mg/Kg; Range is between (0.24-0.40); assay type: functional; conditions: iv
Mus musculus [6] = test: Ability to facilitate pentylenetetrazole (PTZ) induced convulsions n mice after peroral administration at 90 mg/Kg; Range is between (5.43-33.74); assay type: functional; conditions: po
Mus musculus [7] = test: Ability to facilitate pentylenetetrazole (PTZ) induced convulsions n mice after intravenous administration at 90 mg/Kg; Range is between (0.09-0.50); assay type: functional
Mus musculus [8] = species on record: Mus musculus; test: animal or person; conditions: po
Mus musculus [9] = test: Ability to inhibit pentylenetetrazole (PTZ) induced convulsions n mice after peroral administration at 125 mg/Kg; Range is between (2.70-7.09); assay type: functional; conditions: po
Mus musculus [10] = test: Ability to facilitate pentylenetetrazole (PTZ) induced convulsions in mice after peroral administration at 50 mg/Kg; assay type: functional; conditions: po
Mus musculus [11] = test: Ability to facilitate pentylenetetrazole (PTZ) induced convulsions in mice after intravenously administration at 90 mg/Kg; Range is between (0.27-0.71); assay type: functional; conditions: iv
Mus musculus [12] = test: Ability to inhibit pentylenetetrazole (PTZ) induced convulsions in mice after intravenously administration at 75 mg/Kg; Range is between (0.62-1.62); assay type: functional; conditions: iv

Work on `Cc1cc(-n2[nH]c3c(cnc4ccccc43)c2=O)cs1` yielded an ED50 (Mus musculus [1]) of 1.67 mg/kg, an ED50 (Mus musculus [2]) of 0.92 mg/kg and a Ki [3] of 0.316 nM.

For `COC(=O)c1cc2c(cn1)[nH]c1ccccc12` [BETA-CCM], the ED50 (Mus musculus [4]) was 0.49 mg/kg, the Ki [3] was 1.47 nM and the ED50 (Mus musculus [5]) was 0.29 mg/kg.

Work on `O=C1C2C=Nc3ccccc3C2=NN1c1ccccc1` (centres undefined) [CGS-8216] yielded an ED50 (Mus musculus [6]) of 12.8 mg/kg and an ED50 (Mus musculus [7]) of 0.2 mg/kg.

In the case of `CN1C(=O)CN=C(c2ccccc2)c2cc(Cl)ccc21` [DIAZEPAM], the ED50 (Mus musculus [8]) is reported as 0.67 mg/kg.

`Cc1ccc(-n2[nH]c3c(cnc4ccccc43)c2=O)s1` showed an ED50 (Mus musculus [9]) of 4.59 mg/kg and a Ki [3] of 0.32 nM.

`CCOC(=O)c1cc2c(cn1)[nH]c1ccccc12` was tested, and the ED50 (Mus musculus [10]) was 37.5 mg/kg, the ED50 (Mus musculus [11]) was 0.46 mg/kg and the ED50 (Mus musculus [12]) was 1 mg/kg.
